# According to patent US20250262198A1, “METHOD FOR TREATING MULTIPLE SCLEROSIS” (BEIJING INNOCARE PHARMA TECH CO., LTD., priority 2022, published 2025):
# Tests used:
# [1] = test system: patients with relapsing-remitting multiple sclerosis (RRMS); assay: Randomized, double-blind, placebo-controlled phase 2 study of orelabrutinib in RRMS patients (Core part); type: in vivo, human; details: for percent reduction of cumulative number of new Gd+T1 brain lesions relative to placebo: ITT population; for Adjusted mean cumulative number of new Gd+T1 lesions from W 4 to W 24 / Adjusted mean cumulative number of new Gd+T1 lesions at Week 12 / % Reduction of cumulative number of new Gd+T1 lesions from Week 4 to Week 24 vs placebo/50 mg QD switch arm / % Reduction of cumulative number of new Gd+T1 brain lesions vs placebo / Annualized relapse rate (ARR): PHS population; for Adjusted mean cumulative number of new Gd+T1 lesions at Week 12: placebo 4.34
# Experimental: This is a randomized, double-blind, placebo-controlled, phase 2 study of orelabrutinib in patients with relapsing-remitting multiple sclerosis (RRMS) that consists of 2 parts: a Core part and an Open-label Extension (OLE) part. The Core part is completed, and the OLE part is on-going.
# The completed Core part consisted of a 4-week screening period and 24-week treatment period. Patients with RRMS were randomly assigned to 1 of 4 treatment groups in a 1:1:1:1 ratio: placebo, orelabrutinib 50 mg once daily (QD), orelabrutinib 50 mg twice daily (BID), or orelabrutinib 80 mg QD. At Week 13, patients in the placebo cohort were switched to orelabrutinib 50 mg QD.
# Patients with RRMS were randomly assigned to 1 of 4 treatment groups: placebo, orelabrutinib (50 mg, once daily [QD]), orelabrutinib (80 mg QD) and orelabrutinib (50 mg, twice daily [BID]) at a 1:1:1:1 ratio. • Cohort 1: Placebo (Week 1-12)/orelabrutinib 50 mg QD (Week 13-24) • Cohort 2: Orelabrutinib 50 mg QD (Week 1-24) • Cohort 3: Orelabrutinib 80 mg QD (Week 1-24) • Cohort 4: Orelabrutinib 50 mg BID (Week 1-24)
# At week 12 of the treatment period, subjects in Cohort 1 were switched to orelabrutinib at a starting daily dose of 50 mg. A separate open-label extension (OLE) study was developed to allow continued dosing, provided that safety and tolerability were acceptable.
# Placebo or orelabrutinib was orally administered daily starting on Day 1 of the treatment period. Subjects returned to study site on Day 8 and every 4 weeks starting from Day 1 for trial visits and were assessed for safety and efficacy.
# • Intent-to treat (ITT) population. 158 patients randomized: 40 in placebo, 37 in 50 mg QD cohort, 41 in 50 mg BID cohort, and 40 in 80 mg QD cohort. • 3 force majeure events during the study caused missing MRI data at Week 4, 8, or 12 timepoints: Ukraine war & crisis, COVID-19 pandemic outbreak, and FDA's partial clinical hold. • Post-hoc analysis set (PHS) population. 115 patients remaining after excluding patients who missed any one of the 3 MRI data points within first 12 weeks: 27 in placebo, 30 in 50 mg QD, 29 in 50 mg BID, and 29 in 80 mg QD. • 132 patients completed 12 weeks of treatment and 127 patients completed 24 weeks of treatment.
# (PHS Population, N=115) The adjusted mean cumulative number, percent reduction (orelabrutinib vs placebo) associated with p-value are estimated from a Poisson regression model with a Pearson scale parameter with a log link function and offset by log number of scans as of Week 12. Baseline number of Gd+T1 brain lesions is included in the model as a continuous covariate.
# The adjusted mean cumulative numbers are estimated from Poisson regression models with a Pearson scale parameter with a log link function and offset by log number of scans as of that visit. Baseline number of Gd+T1 brain lesions is included in the model as a continuous covariate.
# [2] = test system: MOG35-55-induced EAE mouse model; assay: MOG35-55-induced EAE mouse model of multiple sclerosis, oral orelabrutinib; type: in vivo, C57BL/6 mouse
# Experimental: Multiple sclerosis (MS) is a chronic neuroinflammatory demyelinating disorder of the central nervous system (CNS). EAE (Experimental Autoimmune Encephalomyelitis) is the most common animal model of human MS as it is especially useful to investigate neuroinflammatory pathways. The synthesized peptide MOG35-55-induced EA E mouse model was used to evaluate the therapeutic potential of orelabrutinib. 100 μL emulsion consisted of 0.75 mg/ml MOG35-55 and 4 mg/mL CFA were injected subcutaneously into two different sites on each hind flank of each C57BL/6 mouse. 300 ng of pertussis toxin in 100 μL of PBS were injected intraperitoneally at the day of immunization and two days later. Mice were randomized into 2 groups as follows: vehicle and orelabrutinib 30 mg/kg/day. Each group had 10 animals. On the day of immunization, animals were dosed QD by PO gavage with either vehicle or test compound for 21 days.
smiles,measurement,setting,value
"C=CC(=O)N1CCC(c2ccc(C(N)=O)c(-c3ccc(Oc4ccccc4)cc3)n2)CC1 [orelabrutinib, 2-(4-phenoxyphenyl)-6-[1-(prop-2-enoyl)piperidin-4-yl]pyridine-3-carboxamide]",percent reduction of cumulative number of new Gd+T1 brain lesions relative to placebo,"[1]; Week 12, 50 mg BID",78.8%
same,percent reduction of cumulative number of new Gd+T1 brain lesions relative to placebo,"[1]; Week 12, 50 mg QD",73.3%
same,percent reduction of cumulative number of new Gd+T1 brain lesions relative to placebo,"[1]; Week 12, 80 mg QD",80.5%
same,Adjusted mean cumulative number of new Gd+T1 lesions from W 4 to W 24,[1]; 50 mg BID (N=29),1.08
same,Adjusted mean cumulative number of new Gd+T1 lesions at Week 12,[1]; 50 mg BID (N=29),0.82
same,% Reduction of cumulative number of new Gd+T1 lesions from Week 4 to Week 24 vs placebo/50 mg QD switch arm,"[1]; 50 mg BID, P 0.0114",83.3%
same,Adjusted mean cumulative number of new Gd+T1 lesions from W 4 to W 24,[1]; 50 mg QD (N=30),2.10
same,Adjusted mean cumulative number of new Gd+T1 lesions at Week 12,[1]; 50 mg QD (N=30),1.14
same,% Reduction of cumulative number of new Gd+T1 lesions from Week 4 to Week 24 vs placebo/50 mg QD switch arm,"[1]; 50 mg QD, P 0.0958",67.4%
same,Adjusted mean cumulative number of new Gd+T1 lesions from W 4 to W 24,[1]; 80 mg QD (N=29),0.50
same,Adjusted mean cumulative number of new Gd+T1 lesions at Week 12,[1]; 80 mg QD (N=29),0.42
same,% Reduction of cumulative number of new Gd+T1 lesions from Week 4 to Week 24 vs placebo/50 mg QD switch arm,"[1]; 80 mg QD, P 0.0037",92.3%
same,% Reduction of cumulative number of new Gd+T1 brain lesions vs placebo,"[1]; Week 12, 50 mg BID (N=29), P 0.0073",81.0%
same,% Reduction of cumulative number of new Gd+T1 brain lesions vs placebo,"[1]; Week 12, 50 mg QD (N=30), P 0.0278",73.8%
same,% Reduction of cumulative number of new Gd+T1 brain lesions vs placebo,"[1]; Week 12, 80 mg QD (N=29), P 0.0018",90.4%
same,Annualized relapse rate (ARR),"[1]; Week 24, 50 mg BID",0.12
same,Annualized relapse rate (ARR),"[1]; Week 24, 50 mg QD",0.05
same,Annualized relapse rate (ARR),"[1]; Week 24, 80 mg QD",0.06
same,Annualized relapse rate (ARR),"[1]; Week 24, placebo/50 mg QD switch arm (placebo Week 1-12, orelabrutinib 50 mg QD Week 13-24)",0.14
same,Adjusted mean cumulative number of new Gd+T1 lesions from W 4 to W 24,[1]; switch arm: placebo Week 1-12 / orelabrutinib 50 mg QD Week 13-24 (N=27),6.45
same,Annualized relapse rate (ARR) compared to the placebo group,"[1]; all orelabrutinib cohorts, Week 12, sustained through Week 24",reduced
same,control of new T1 lesions,"[1]; all orelabrutinib cohorts, after 4 weeks of treatment, effect sustained up to 24 weeks",Control of new T1 lesions was achieved
same,average clinical score (EAE),"[2]; 30 mg/kg/day PO QD, day 15 post-immunization, vehicle 2.0",0.9
same,average clinical score (EAE),"[2]; 30 mg/kg/day PO QD, day 21, p<0.05, vehicle 1.5",0.6
same,body weight loss associated with EAE,"[2]; 30 mg/kg/day PO QD, vs vehicle",reduced weight loss
same,reduction of EAE score,[2]; 30 mg/kg/day oral,50%
same,EAE severity,"[2]; 30 mg/kg/day oral, vs vehicle",markedly ameliorated EAE severity
